US20120202818A1, “UREIDOPHENYL SUBSTITUTED TRIAZINE DERIVATIVES AND THEIR THERAPEUTICAL APPLICATIONS” (CALIFORNIA CAPITAL EQUITY, LLC, priority 2009, published 2012)

How the values were obtained:
Format in all cases: biochemical
Ret kinase = target: T1, Ret kinase (Homo sapiens, UniProt P07949); assay: Ret kinase assay (KinaseProfiler / Kinase HotSpot); conditions: compound at 1 μM
T1 construct: purchased Millipore (KinaseProfiler service) and/or Reaction Biology Corp. (Kinase HotSpot service)
Procedure: (§1) This example illustrated c-Src kinase, Aurora-A kinase, Flt3 kinase, Ret kinase and TrkA Kinase Assays of selected Compounds from this invention (referred to Daniele Fancelli et al, J. Med. Chem., 2006, 49 (24), pp 7247-7251). The KinaseProfiler™ Service Assay Protocols (Millipore) were used to test the kinase inhibiting activity of novel compounds from this invention. To do this, the buffer composition was as: 20 mM MOPS, 1 mM EDTA, 0.01% Brij-35, 5% Glycerol, 0.1% β-mercaptoethanol, 1 mg/mL BSA. Test compounds were initially dissolved in DMSO at the desired concentration, then serially diluted to the kinase assay buffer. In a final reaction volume of 25 μL, Aurora-A(h) (5-10 mU) is incubated with 8 mM MOPS pH 7.0, 0.2 mM EDTA, 200 μM LRRASLG (Kemptide), 10 mM MgAcetate and [γ^33P-ATP]. The reaction was initiated by the addition of the MgATP mix. After incubation for 40 minute at room temperature, the reaction was stopped by addition of 5 μL of a 3% phosphoric acid solution. 10 μL of the reaction was then spotted onto a P30 filtermat and washed three times for 5 minutes in 50 mM phosphoric acid and once in methanol prior to drying and scintillation counting. Wells containing substrate but no kinase and wells containing a phosphopeptide control were used to set 0% and 100% phosphorylation value, respectively.
(§2) Also Kinase Hotspot ^SM kinase assay was used to test the compounds for IC50 or % inhibitions (Reaction Biology Corp.). Inhibitor IC50 values were determined by titration of compound at the optimal kinase concentration (Kinase EC50).

Aurora-A kinase = target: T2, Aurora-A kinase (Homo sapiens, UniProt O14965); assay: Aurora-A kinase assay (KinaseProfiler / Kinase HotSpot); conditions: compound at 1 μM; read-out: % Inhibition @1 μM Auroro-A
T2 construct: purchased Millipore (KinaseProfiler service) and/or Reaction Biology Corp. (Kinase HotSpot service)
T2 sequence (O14965 1-403): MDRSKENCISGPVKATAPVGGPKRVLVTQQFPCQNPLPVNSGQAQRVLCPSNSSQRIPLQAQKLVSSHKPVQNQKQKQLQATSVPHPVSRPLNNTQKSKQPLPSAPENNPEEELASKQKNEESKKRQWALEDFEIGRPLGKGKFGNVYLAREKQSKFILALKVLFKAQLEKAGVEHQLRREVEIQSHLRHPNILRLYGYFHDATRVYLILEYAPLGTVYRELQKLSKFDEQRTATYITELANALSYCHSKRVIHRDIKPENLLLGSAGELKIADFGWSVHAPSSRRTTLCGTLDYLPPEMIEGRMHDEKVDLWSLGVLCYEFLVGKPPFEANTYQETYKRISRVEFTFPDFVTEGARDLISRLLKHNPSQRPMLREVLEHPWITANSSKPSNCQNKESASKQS
Procedure: as §1, §2

c-Src kinase = target: T3, c-Src kinase (Homo sapiens, UniProt P12931); assay: c-Src kinase assay (KinaseProfiler / Kinase HotSpot); conditions: compound at 1 μM; read-out: % Inhibition @1 μM cSrc
T3 construct: purchased Millipore (KinaseProfiler service) and/or Reaction Biology Corp. (Kinase HotSpot service)
Procedure: as §1, §2

TrkA Kinase = target: T4, TrkA Kinase (Homo sapiens, UniProt P04629); assay: TrkA kinase assay (KinaseProfiler / Kinase HotSpot); conditions: compound at 1 μM
T4 construct: purchased Millipore (KinaseProfiler service) and/or Reaction Biology Corp. (Kinase HotSpot service)
Procedure: as §1, §2

Flt3 kinase = target: T5, Flt3 kinase (Homo sapiens, UniProt P36888); assay: Flt3 kinase assay (KinaseProfiler / Kinase HotSpot); conditions: compound at 1 μM
T5 construct: purchased Millipore (KinaseProfiler service) and/or Reaction Biology Corp. (Kinase HotSpot service)
T5 sequence (P36888 27-993): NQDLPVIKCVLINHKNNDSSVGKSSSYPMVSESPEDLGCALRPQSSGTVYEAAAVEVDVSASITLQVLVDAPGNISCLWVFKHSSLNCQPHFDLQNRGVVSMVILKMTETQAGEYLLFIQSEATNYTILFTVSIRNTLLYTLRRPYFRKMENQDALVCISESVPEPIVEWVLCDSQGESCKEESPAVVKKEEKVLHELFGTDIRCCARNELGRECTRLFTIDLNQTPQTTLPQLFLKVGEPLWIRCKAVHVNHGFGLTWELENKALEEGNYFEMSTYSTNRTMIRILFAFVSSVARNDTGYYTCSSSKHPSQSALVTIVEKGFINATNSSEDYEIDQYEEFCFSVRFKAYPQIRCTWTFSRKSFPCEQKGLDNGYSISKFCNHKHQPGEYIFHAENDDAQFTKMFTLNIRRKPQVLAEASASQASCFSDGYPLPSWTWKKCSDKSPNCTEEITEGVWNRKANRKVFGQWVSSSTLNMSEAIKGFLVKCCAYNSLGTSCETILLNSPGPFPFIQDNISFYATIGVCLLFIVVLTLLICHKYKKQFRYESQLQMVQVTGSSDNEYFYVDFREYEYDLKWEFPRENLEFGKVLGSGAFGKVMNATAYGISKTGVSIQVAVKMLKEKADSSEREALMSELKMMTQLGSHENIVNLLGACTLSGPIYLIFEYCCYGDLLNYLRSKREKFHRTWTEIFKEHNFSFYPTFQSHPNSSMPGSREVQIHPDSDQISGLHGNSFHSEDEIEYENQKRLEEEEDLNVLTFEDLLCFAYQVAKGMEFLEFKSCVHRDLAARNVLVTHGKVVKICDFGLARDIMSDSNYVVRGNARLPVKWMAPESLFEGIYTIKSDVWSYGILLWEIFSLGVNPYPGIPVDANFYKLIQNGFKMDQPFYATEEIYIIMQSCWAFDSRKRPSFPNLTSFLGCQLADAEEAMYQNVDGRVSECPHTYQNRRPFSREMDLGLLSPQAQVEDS
Procedure: as §1, §2

T1 sequence (P07949 29-1114): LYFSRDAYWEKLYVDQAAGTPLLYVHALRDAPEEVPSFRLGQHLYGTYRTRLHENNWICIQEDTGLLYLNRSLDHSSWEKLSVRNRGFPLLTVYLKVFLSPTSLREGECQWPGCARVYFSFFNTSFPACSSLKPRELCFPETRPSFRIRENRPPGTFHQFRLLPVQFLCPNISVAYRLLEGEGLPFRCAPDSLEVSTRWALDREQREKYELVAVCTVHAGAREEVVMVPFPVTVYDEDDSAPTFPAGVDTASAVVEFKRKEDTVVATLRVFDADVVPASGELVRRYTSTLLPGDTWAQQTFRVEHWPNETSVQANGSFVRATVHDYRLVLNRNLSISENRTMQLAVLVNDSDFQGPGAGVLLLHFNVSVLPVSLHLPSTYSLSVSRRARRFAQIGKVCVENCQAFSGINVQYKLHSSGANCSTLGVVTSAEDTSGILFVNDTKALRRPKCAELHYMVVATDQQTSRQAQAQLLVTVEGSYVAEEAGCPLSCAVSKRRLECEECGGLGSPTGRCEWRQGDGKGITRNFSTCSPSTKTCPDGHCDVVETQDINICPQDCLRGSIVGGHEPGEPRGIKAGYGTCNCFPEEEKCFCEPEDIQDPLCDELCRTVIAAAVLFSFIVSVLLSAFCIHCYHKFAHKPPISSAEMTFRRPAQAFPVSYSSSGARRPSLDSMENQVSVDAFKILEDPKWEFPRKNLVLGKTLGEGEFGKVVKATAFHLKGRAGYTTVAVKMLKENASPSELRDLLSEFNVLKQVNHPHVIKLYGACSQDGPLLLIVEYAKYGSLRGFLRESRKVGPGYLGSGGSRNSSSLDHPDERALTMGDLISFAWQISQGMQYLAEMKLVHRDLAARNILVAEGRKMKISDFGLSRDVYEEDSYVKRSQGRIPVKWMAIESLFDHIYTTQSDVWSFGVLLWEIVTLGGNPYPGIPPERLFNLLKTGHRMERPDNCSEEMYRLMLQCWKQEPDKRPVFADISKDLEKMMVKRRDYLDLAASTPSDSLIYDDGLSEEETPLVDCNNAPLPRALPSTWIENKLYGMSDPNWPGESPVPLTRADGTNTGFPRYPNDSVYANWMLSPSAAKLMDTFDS
T3 sequence (P12931 whole entry): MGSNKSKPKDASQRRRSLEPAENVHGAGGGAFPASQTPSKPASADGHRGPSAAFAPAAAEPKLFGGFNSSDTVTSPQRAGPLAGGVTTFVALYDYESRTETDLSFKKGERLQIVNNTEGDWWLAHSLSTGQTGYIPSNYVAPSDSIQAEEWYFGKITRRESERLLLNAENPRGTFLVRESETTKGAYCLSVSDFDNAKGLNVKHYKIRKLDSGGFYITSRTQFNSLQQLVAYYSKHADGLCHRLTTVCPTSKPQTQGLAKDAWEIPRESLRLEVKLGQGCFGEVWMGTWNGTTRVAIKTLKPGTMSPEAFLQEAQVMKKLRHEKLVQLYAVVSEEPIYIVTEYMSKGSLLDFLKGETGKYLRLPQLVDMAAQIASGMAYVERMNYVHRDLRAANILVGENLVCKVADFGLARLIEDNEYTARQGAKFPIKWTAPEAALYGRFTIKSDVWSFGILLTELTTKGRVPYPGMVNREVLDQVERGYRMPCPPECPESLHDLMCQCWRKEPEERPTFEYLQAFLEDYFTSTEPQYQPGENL
T4 sequence (P04629 33-796): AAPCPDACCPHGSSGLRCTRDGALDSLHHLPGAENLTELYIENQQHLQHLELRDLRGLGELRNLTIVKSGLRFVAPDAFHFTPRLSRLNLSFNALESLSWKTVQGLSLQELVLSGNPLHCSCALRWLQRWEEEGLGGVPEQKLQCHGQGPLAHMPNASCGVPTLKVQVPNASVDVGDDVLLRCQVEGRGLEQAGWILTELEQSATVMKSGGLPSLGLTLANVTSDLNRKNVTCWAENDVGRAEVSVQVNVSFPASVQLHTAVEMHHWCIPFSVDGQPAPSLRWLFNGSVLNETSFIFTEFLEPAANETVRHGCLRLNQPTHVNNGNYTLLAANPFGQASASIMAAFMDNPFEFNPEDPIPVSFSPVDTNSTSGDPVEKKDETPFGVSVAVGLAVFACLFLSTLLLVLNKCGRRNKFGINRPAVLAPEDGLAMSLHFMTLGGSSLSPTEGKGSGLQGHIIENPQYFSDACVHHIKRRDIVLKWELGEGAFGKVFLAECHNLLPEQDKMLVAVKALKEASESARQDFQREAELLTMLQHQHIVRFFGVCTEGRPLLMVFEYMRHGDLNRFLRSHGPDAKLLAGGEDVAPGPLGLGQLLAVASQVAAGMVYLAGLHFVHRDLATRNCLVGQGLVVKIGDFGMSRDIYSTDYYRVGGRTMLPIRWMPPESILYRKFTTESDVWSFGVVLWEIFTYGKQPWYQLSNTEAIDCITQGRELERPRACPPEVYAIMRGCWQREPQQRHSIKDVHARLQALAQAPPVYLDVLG

SMILES | inhibition at 1 µM (Ret kinase) [%] | inhibition at 1 µM (Aurora-A kinase) [%] | inhibition at 1 µM (c-Src kinase) [%] | inhibition at 1 µM (TrkA Kinase) [%] | inhibition at 1 µM (Flt3 kinase) [%]
Cc1cnc(Nc2nc(Sc3ccc(N)cc3)nc(N3CCN(C)CC3)n2)s1 [Example 2] | 50 to 90 | 50 to 90 | 50 to 90 | 50 to 90 | > 90
Cc1cnc(Nc2nc(Sc3cccc(N)c3)nc(N3CCN(C)CC3)n2)s1 [Example 3] | < 50 | 50 to 90 | < 50 | 50 to 90 | 50 to 90
Cc1cnc(Nc2nc(Sc3ccc(NC(=O)Nc4ccccc4)cc3)nc(N3CCN(C)CC3)n2)s1 [Example 4] | 50 to 90 | > 90 | < 50 | 50 to 90 | 50 to 90
CCc1nc(Nc2ccc(NC(=O)Nc3ccc(C(F)(F)F)cc3)cc2)nc(Nc2cc(C)[nH]n2)n1 [Example 12] | 50 to 90 | > 90 | < 50 | < 50 | < 50
CCNC(=O)Nc1ccc(Nc2nc(CC)nc(Nc3cc(C)n(C(=O)NCC)n3)n2)cc1 [Example 13] | < 50 | < 50 | < 50 | < 50 | < 50
CCc1nc(Nc2ccc(NC(=O)NC(C)C)cc2)nc(Nc2cc(C)n(C(=O)NC(C)C)n2)n1 [Example 14] | < 50 | 50 to 90 | < 50 | < 50 | < 50
CCc1nc(Nc2ccc(NC(=O)Nc3ccccc3)cc2)nc(Nc2ncc(C)s2)n1 [Example 15] | < 50 | < 50 | < 50 | < 50 | < 50
CCc1nc(Nc2ccc(NC(=O)NC(C)C)cc2)nc(Nc2cc(C)[nH]n2)n1 [Example 21] | < 50 | < 50 | < 50 | < 50 | < 50
CCNC(=O)Nc1ccc(Nc2nc(CC)nc(Nc3cc(C)[nH]n3)n2)cc1 [Example 22] | < 50 | < 50 | < 50 | < 50 | < 50
CCc1nc(Nc2ccc(NC(=O)Nc3ccccc3C)cc2)nc(Nc2cc(C)[nH]n2)n1 [Example 23] | < 50 | > 90 | < 50 | < 50 | < 50
CCc1nc(Nc2ccc(NC(=O)Nc3ccc(OC)cc3)cc2)nc(Nc2cc(C)[nH]n2)n1 [Example 24] | 50 to 90 | 50 to 90 | < 50 | < 50 | 50 to 90
CCc1nc(Nc2ccc(NC(=O)NCc3ccccc3)cc2)nc(Nc2cc(C)[nH]n2)n1 [Example 25] | > 90 | 50 to 90 | < 50 | < 50 | < 50
